Consider eleven compounds from PMC8759730, “Targeting allosteric sites of human aromatase: a comprehensive in-silico and in-vitro workflow to find potential plant-based anti-breast cancer therapeutics” (Journal of Enzyme Inhibition and Medicinal Chemistry, 2021).

Where two headings read alike, the source gives them in different places.

The test system of one assay is MDA-MB-231 (ER-) cells. Put plainly: Antiproliferative assay, MDA-MB-231. The format is cell-based.
In another assay the test system is MCF-7 (ER+) cells. Description: Antiproliferative assay, MCF-7. Format: cell-based. The settings on record: for IC50: read-out: MCF-7 IC50.
Assay [1] addresses T1, Recombinant Human Aromatase (HA) (Homo sapiens, UniProt P11511).
T1 sequence (P11511 1-503): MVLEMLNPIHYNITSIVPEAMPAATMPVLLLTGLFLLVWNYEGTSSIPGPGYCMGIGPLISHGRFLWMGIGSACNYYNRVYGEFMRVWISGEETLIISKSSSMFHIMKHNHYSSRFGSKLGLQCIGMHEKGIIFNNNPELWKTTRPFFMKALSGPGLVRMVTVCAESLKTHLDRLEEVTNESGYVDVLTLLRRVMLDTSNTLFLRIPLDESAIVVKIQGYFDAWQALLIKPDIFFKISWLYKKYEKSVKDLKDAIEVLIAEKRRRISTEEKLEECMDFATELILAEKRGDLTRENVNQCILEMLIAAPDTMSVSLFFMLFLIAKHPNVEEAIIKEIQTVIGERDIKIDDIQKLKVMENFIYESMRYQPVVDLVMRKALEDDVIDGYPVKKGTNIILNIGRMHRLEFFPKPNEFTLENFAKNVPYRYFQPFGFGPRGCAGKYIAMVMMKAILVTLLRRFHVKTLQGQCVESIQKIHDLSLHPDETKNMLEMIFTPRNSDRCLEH
Description: HA inhibition assay (Aromatase Inhibitor Screening Kit, fluorogenic substrate). Format: biochemical. Conditions: for Ki: values inside parenthesis, unit inferred, read-out: HA (Ki), inhibition constant (converted).

[2] abbreviates: Homo sapiens, MDA-MB-231, 72 h, read-out: MDA-MB-231 IC50.
Setting [3] is: tested at 200-0.1 µM, triplicate, read-out: HA IC50.
Where [4] appears, read: Homo sapiens, MDA-MB-231, 72 h, 72 h; read-out: MDA-MB-231 IC50.
The mark [5] stands for this setting: Homo sapiens, MCF7, 72 h, 72 h, with 10 µM testosterone undecanoate.
Setting [6] is: kinetic experiments at varied substrate concentration.

Regarding `CC1=CC(=O)CC(C)(C)[C@@]1(O)/C=C/C(C)=C\C(=O)O` [Abscisic acid], the “Activity against MDA-MB-231 (in words)” value with MDA-MB-231 (ER-) cells is “inactive”. Moreover, the IC50 (as a rule, the midpoint of a concentration-inhibition curve) with MDA-MB-231 (ER-) cells (setting [2]) is above 100 µM; in the assay on MCF-7 (ER+) cells (Homo sapiens, MCF7, 72 h), above 100 µM; in assay [1] (setting [3]), above 100 µM. Besides, in the assay with MCF-7 (ER+) cells, the “Activity against MCF-7 (in words)” value was “inactive”. Further, in assay [1], the “HA inhibitory activity (in words)” value was “inactive”.
For the compound `O=c1cc(-c2ccc(O)cc2)oc2cc(O)cc(O)c12` [Apigenin], the IC50 with MDA-MB-231 (ER-) cells (setting [2]) came out at 60 ± 1.6 µM; in the assay on MCF-7 (ER+) cells (Homo sapiens, MCF7, 72 h) it was 13.6 ± 3.5 µM.
As to `COc1ccc2cc3[n+](cc2c1OC)CCc1cc2c(cc1-3)OCO2` [Berberine], the IC50 was above 100 µM with MDA-MB-231 (ER-) cells (setting [4]), 10.2 ± 2.6 µM in the assay on MCF-7 (ER+) cells (setting [5]) and 21.4 ± 0.9 µM in assay [1] (setting [3]). Further, the Mode of inhibition result is reported as “Non-competitive” in assay [1] (setting [6]) and “non-competitive inhibition” in assay [1] (kinetic experiments at varied substrate concentration, listed as berberine). Also, the Ki (commonly the dissociation constant of the complex between target and ligand, obtained from inhibition or displacement) in assay [1] is 20.1 µM.
As to `C=C(C)[C@@H]1CC[C@]2(CO)CC[C@]3(C)[C@H](CC[C@@H]4[C@@]5(C)CC[C@H](O)C(C)(C)[C@@H]5CC[C@]43C)[C@@H]12` [Betulin], in the assay on MDA-MB-231 (ER-) cells, the “Activity against MDA-MB-231 (in words)” value was “very weak inhibitory activity”. Also, the IC50 with MDA-MB-231 (ER-) cells (Homo sapiens, MDA-MB-231, 72 h; read-out: MDA-MB-231 IC50) is above 100 µM. In addition, the “Activity against MCF-7 (in words)” value in the assay on MCF-7 (ER+) cells was “very weak inhibitory activity”. Besides, the IC50 in the assay on MCF-7 (ER+) cells (Homo sapiens, MCF7, 72 h) stood at 67 ± 2.6 µM. In assay [1], the “HA inhibitory activity (in words)” value is given as “very weak inhibitory activity”, the IC50 was 95.3 µM and the Mode of inhibition entry is “Non-competitive”.
As to `O=c1cc(-c2ccccc2)oc2cc(O)cc(O)c12` [Chrysin], the IC50 was found to be 65 ± 2.3 µM with MDA-MB-231 (ER-) cells (setting [4]) and 7.8 ± 2.8 µM with MCF-7 (ER+) cells (setting [5]).
With `N#Cc1ccc(C(c2ccc(C#N)cc2)n2cncn2)cc1` [Letrozole, reference compound], the IC50 in the assay on MDA-MB-231 (ER-) cells (setting [4]) turned out to be 41.3 ± 2.1 µM; with MCF-7 (ER+) cells (setting [5]), 5.6 ± 1.1 µM.
As to `CC(C)=CCc1c2c(c3occ(-c4ccc(O)c(O)c4)c(=O)c3c1O)C=CC(C)(C)O2` [Pomiferin], the IC50 was determined as 30.9 ± 3.1 µM in the assay on MDA-MB-231 (ER-) cells (setting [4]), 5.4 ± 2.2 µM with MCF-7 (ER+) cells (setting [5]) and 15.1 ± 0.5 µM in assay [1] (setting [3]). Further, the Mode of inhibition entry in assay [1] (setting [6]) is “Non-competitive”; in assay [1] (kinetic experiments at varied substrate concentration, listed as pomiferin), “non-competitive inhibition”. Further, the Ki in assay [1] is 14.8 µM.
Consider `Oc1ccc(/C=C/c2cc(O)cc(O)c2)cc1` [Resveratrol], for which the half-maximal inhibitory concentration (IC50) in the assay with MDA-MB-231 (ER-) cells (setting [4]) came to 38 ± 3.5 µM; in the assay on MCF-7 (ER+) cells (setting [5]) it was 11 ± 2.2 µM.
Turning to `C[C@@H]1O[C@@H](OC[C@H]2O[C@@H](Oc3c(-c4ccc(O)c(O)c4)oc4cc(O)cc(O)c4c3=O)[C@H](O)[C@@H](O)[C@@H]2O)[C@H](O)[C@H](O)[C@H]1O` [Rutin], the “Activity against MDA-MB-231 (in words)” value in the assay on MDA-MB-231 (ER-) cells is “inactive”. Also, the IC50 (in the assay with MDA-MB-231 (ER-) cells (setting [4]); in the assay on MCF-7 (ER+) cells (setting [5]); in assay [1] (setting [3])) was above 100 µM in each case. Besides, in the assay with MCF-7 (ER+) cells, the “Activity against MCF-7 (in words)” value was “inactive”. Further, the “HA inhibitory activity (in words)” value in assay [1] is “inactive”.
Turning to `COc1ccc(-c2cc(=O)c3c(OC)c(OC)c(OC)c(OC)c3o2)cc1` [Tangeretin], the IC50 is 45.6 ± 3.8 µM in the assay on MDA-MB-231 (ER-) cells (setting [4]), 30.3 ± 2.1 µM in the assay on MCF-7 (ER+) cells (setting [5]) and above 100 µM in assay [1] (setting [3]). Moreover, in assay [1], the “HA inhibitory activity (in words)” value was “inactive”.
Take `Cc1coc2c1C(=O)C(=O)c1c-2ccc2c1CCCC2(C)C` [Tanshinone IIA]: the IC50 with MDA-MB-231 (ER-) cells (72 h; read-out: MDA-MB-231 IC50) was 3.7 ± 1.7 µM; in the assay on MDA-MB-231 (ER-) cells (setting [4]) it was around 2.1 µM; with MCF-7 (ER+) cells (72 h, with 10 µM testosterone undecanoate), 1.4 ± 1.3 µM; with MCF-7 (ER+) cells (setting [5]), around 2.1 µM; in assay [1] (setting [3]), 42.5 ± 1.2 µM. Moreover, the Mode of inhibition result in assay [1] (setting [6]) is “Non-competitive”. The Ki in assay [1] is 40.9 µM.
